This is an account of results in patent publication US20240336654A1, “ANTIMICROBIAL PEPTIDOMIMETICS” (SPEXIS AG, priority 2021, published 2024).

Where a SMILES comes first, the peptide text is derived from it. Bridges are numbered along the chain shown (N, C = ends). [ ]: non-standard residue; d: D form. The star is where a group is joined. Val(Nα-amidino) = CC(C)[C@H](NC(=N)N)C(=O)*; Dab(iPr) = CC(C)NCC[C@H](N)C(=O)O; Hyp = O=C(O)[C@@H]1C[C@@H](O)CN1; Pen = CC(C)(S)[C@H](N)C(=O)O; dDab = NCC[C@@H](N)C(=O)O; Nle = CCCC[C@H](N)C(=O)O; Dab = NCC[C@H](N)C(=O)O

What all share (assay type): cell-based
For series [1], the system named is human red blood cells (hRBC). To be noted: red cells of human, 1 h, 200 μg/mL. The procedure, abridged: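 Peptides at 200 μg/mL incubated 1 h at 37 °C with 20% (v/v) washed human RBC, shaking. Hemolysis from supernatant OD540, expressed as percent of 2.5% Triton X-100 lysis, with PBS as 0%.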
Series [2] concerns Escherichia coli MCR-1 Af 45. To be noted: MCR-1 Af 45. The essentials:
(§1)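 CLSI broth microdilution, slightly modified: cation-adjusted Mueller-Hinton II broth with about 5×10^5 CFU/mL from a 0.5 McFarland suspension, and two-fold serial peptide dilutions with Polysorbate 80 at 0.002% final. MIC (μg/mL) was the lowest concentration with no visible growth after 18-20 hours at 35° C.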

Series [3] deals with Klebsiella pneumoniae SSI3010. To be noted: SSI3010. The procedure, abridged: as §1
Series [4] relates to Escherichia coli ATCC 25922. To be noted: ATCC 25922. The essentials: as §1

Regarding `CCCC[C@H](NC(=O)[C@@H]1CSSC(C)(C)[C@H](NC(=O)[C@@H](NC(=O)[C@@H]2C[C@@H](O)CN2C(=O)[C@@H](N)C(C)C)[C@@H](C)CC)C(=O)N[C@@H](Cc2ccc(O)cc2)C(=O)N[C@@H](CO)C(=O)N[C@@H](CC(N)=O)C(=O)N[C@@H](CCCNC(=N)N)C(=O)N[C@@H](CCN)C(=O)N[C@@H]([C@@H](C)O)C(=O)N[C@H](CCN)C(=O)N[C@@H](CCCCN)C(=O)N[C@@H](CCN)C(=O)N[C@@H](CCN)C(=O)N1)C(=O)O` [Example 67, Val-Hyp-Ile-Pen-Tyr-Ser-Asn-Arg-Dab-Thr-^DDab-Lys-Dab-Dab-Cys-Nle] (H-V[Hyp]I[Pen]YSNR[Dab]T[dDab]K[Dab][Dab]C[Nle]-OH; disulfide 4-15), the “Hemolysis at 0.2 g/L” value in series [1] was less than 1%. Also, the “Escherichia coli MCR-1 Af45 MIC” value in series [2] stood at 0.0625 µg/mL. The “Klebsiella pneumoniae SSI3010 MIC” value in series [3] amounted to 0.125 µg/mL. Besides, the “Escherichia coli ATCC 25922 MIC” value in series [4] worked out at 0.0625 µg/mL.
In the case of `CC[C@H](C)[C@H](NC(=O)[C@@H]1C[C@@H](O)CN1C(=O)[C@@H](NC(=N)N)C(C)C)C(=O)N[C@@H]1C(=O)N[C@@H](Cc2ccc(O)cc2)C(=O)N[C@@H]([C@@H](C)O)C(=O)N[C@@H](CC(N)=O)C(=O)N[C@@H](CCCNC(=N)N)C(=O)N[C@@H](CCN)C(=O)N[C@@H]([C@@H](C)O)C(=O)N[C@H](CCN)C(=O)N[C@@H](CCCCN)C(=O)N[C@@H](CCN)C(=O)N[C@@H](CCN)C(=O)N[C@H](C(=O)N[C@@H](Cc2ccc(O)cc2)C(=O)O)CSSC1(C)C` [Example 68, Gua-Val-Hyp-Ile-Pen-Tyr-Thr-Asn-Arg-Dab-Thr-^DDab-Lys-Dab-Dab-Cys-Tyr] ({Val(Nα-amidino)}-[Hyp]I[Pen]YTNR[Dab]T[dDab]K[Dab][Dab]CY-OH; disulfide 3-14), the “Hemolysis at 0.2 g/L” value in series [1] is given as less than 1%. Further, in series [2], the “Escherichia coli MCR-1 Af45 MIC” value is 0.03125 µg/mL. Besides, in series [3], the “Klebsiella pneumoniae SSI3010 MIC” value turned out to be 0.125 µg/mL. Also, the “Escherichia coli ATCC 25922 MIC” value in series [4] is 0.0625 µg/mL.
Take `CC[C@H](C)[C@H](NC(=O)[C@@H]1C[C@@H](O)CN1C(=O)[C@@H](NC(=N)N)C(C)C)C(=O)N[C@@H]1C(=O)N[C@@H](Cc2ccc(O)cc2)C(=O)N[C@@H](CCN)C(=O)N[C@@H](CC(N)=O)C(=O)N[C@@H](CCCNC(=N)N)C(=O)N[C@@H](CCN)C(=O)N[C@@H]([C@@H](C)O)C(=O)N[C@H](CCN)C(=O)N[C@@H](CCCCN)C(=O)N[C@@H](CO)C(=O)N[C@@H](CCN)C(=O)N[C@H](C(=O)N[C@@H](Cc2ccc(O)cc2)C(=O)O)CSSC1(C)C` [Example 69, Gua-Val-Hyp-Ile-Pen-Tyr-Dab-Asn-Arg-Dab-Thr-^DDab-Lys-Ser-Dab-Cys-Tyr] ({Val(Nα-amidino)}-[Hyp]I[Pen]Y[Dab]NR[Dab]T[dDab]KS[Dab]CY-OH; disulfide 3-14): the “Hemolysis at 0.2 g/L” value in series [1] was less than 1%. Moreover, the “Escherichia coli MCR-1 Af45 MIC” value in series [2] was found to be 0.0625 µg/mL. In series [3], the “Klebsiella pneumoniae SSI3010 MIC” value amounted to 0.0625 µg/mL. For the same compound, the “Escherichia coli ATCC 25922 MIC” value in series [4] was determined as 0.0625 µg/mL.
Consider `CC[C@H](C)[C@H](NC(=O)[C@@H]1C[C@@H](O)CN1C(=O)[C@@H](NC(=N)N)C(C)C)C(=O)N[C@@H]1C(=O)N[C@@H](Cc2ccc(O)cc2)C(=O)N[C@@H](CO)C(=O)N[C@@H](CC(N)=O)C(=O)N[C@@H](CCCNC(=N)N)C(=O)N[C@@H](CCNC(C)C)C(=O)N[C@@H]([C@@H](C)O)C(=O)N[C@H](CCN)C(=O)N[C@@H](CCCCN)C(=O)N[C@@H](CCNC(C)C)C(=O)N[C@@H](CCN)C(=O)N[C@H](C(=O)N[C@@H](Cc2ccc(O)cc2)C(=O)O)CSSC1(C)C` [Example 70, Gua-Val-Hyp-Ile-Pen-Tyr-Ser-Asn-Arg-Da b(iPr)-Thr-^DDab-Lys-Dab(iPr)-Dab-Cys-Tyr] ({Val(Nα-amidino)}-[Hyp]I[Pen]YSNR[Dab(iPr)]T[dDab]K[Dab(iPr)][Dab]CY-OH; disulfide 3-14), for which the “Hemolysis at 0.2 g/L” value in series [1] is given as less than 1%. Further, the “Escherichia coli MCR-1 Af45 MIC” value in series [2] is 0.0625 µg/mL. The “Klebsiella pneumoniae SSI3010 MIC” value in series [3] came out at 0.25 µg/mL. The “Escherichia coli ATCC 25922 MIC” value in series [4] was 0.125 µg/mL.
